Source: patent publication US20100317613A1, “ACTIVITY ENHANCER FOR DETOXIFYING ENZYME” (TAKARA BIO INC., priority 2006, published 2010)

Legend:
mouse = assay: Single oral dose toxicity in mouse; type: in vivo; conditions: oral, 2,000 mg/kg body weight as a single dose
Procedure: For example, in the case of oral administration, there is no fatal case when agarobiose, agarotetraose, agarohexaose, agarooctaose, a mixture thereof, or DGE is administered to a mouse in an amount of 2,000 mg/kg body weight as a single dose. Further, there is no fatal case when the above-described active ingredient is administered orally as a single dose of 2,000 mg/kg body weight to a rat.

HL-60 cell = assay: Cancer cell growth suppressing activity using HL-60 cell; type: cell-based; conditions: HPLC fraction at retention time 4.05 to 4.16 minutes, found to be DGE
Procedure: The neutralized product was subjected to the following normal phase HPLC. Each peak was collected, dried under reduced pressure and then dissolved in water. A cancer cell growth suppressing activity of each fraction was measured using a HL-60 cell.

[1] = tested on: Glutathione S-transferase (GST); assay: Enhancing effect on glutathione S-transferase (GST) activity in Hepa1c1c7 cells; type: cell-based; conditions: for GST activity (−fold): relative to water control
Procedure: Hepa1c1c7 cells (ATCC CRL-2026) were suspended in a Dulbecco-modified Eagle medium (manufactured by Sigma) containing 10% of fetal bovine serum (manufactured by MP Biomedicals Co.) and 1% of penicillin-streptomycin (manufactured by Nacalai Tesque, Inc.) at 4×10^5 cells/ml. To each well of a 96 well-microtiter plate, 0.2 ml of the cell suspension was added, and cultured at 37° C. overnight in the presence of 5% carbon dioxide gas. Then, the medium in the wells was replaced with a Dulbecco-modified Eagle medium. To each well, 0.4 μl of a solution of a test substance in water was added and then cultured for 24 hours. The agarobiose obtained in Preparation Example 1 and a commercially available agaro-oligosaccharide (trade name: Agaoligo, manufactured by Takara Bio Inc., containing agarobiose, agarotetraose, agarohexaose and agarooctaose in 20 to 25% each) were used as test substances. For a negative control, water was added in place of a test substance. After completion of the culture, the medium was removed and the cells were washed with a phosphate buffer. Then, 0.1 ml of a cell-lysis solution (10 mM Tris-HCl (pH 7.4), 38.5 mM KCl, and 1 mM EDTA, 1% NP-40) was added and incubated at 37° C. for 10 minutes to obtain an enzyme solution. To 25 μl of the enzyme solution, 155 μl of a reaction solution (0.13 M potassium phosphate buffer solution (pH 6.5), 1.3 mM glutathione) was added. Immediately before measurement, 20 al of 10 mM of CDNB (2,4-dinitrochlorobenzene, manufactured by TOKYO CHEMICAL INDUSTRY CO., LTD.) as a reaction substrate was added, and a change in an absorbance at 340 nm was measured. This activity assay was performed in triplicate. The protein content was measured by using a 50-fold dilution of the enzyme solution with a phosphate buffer and MicroBCA protein assay kit (manufactured by PIERCE Co.). The GST activity was expressed as a GST activity relative to the control and calculated by the following formula.
GST activity=(Maximum rate coefficient in test substance-added section/Protein content in test substance-added section)/(Maximum rate coefficient in water-added section/Protein content in water-added section)
An effect on a GST activity caused by using DGE obtained in Preparation Example 2 was determined in accordance with Example 1. Each measurement was repeated three times. The GST activity was expressed as a GST activity relative to the control and calculated by the same formula as in Example 1.

Quinone Reductase (QR) = assay: Quinone reductase (QR) activity in Hepa1c1c7 cells; type: cell-based; conditions: for QR activity (−fold) / QR activity (fold vs water control): relative to water control; for QR activity (fold vs water control): Table 3 (QR activity test), 24 hours
Procedure: A QR activity was measured by a partially modified method from a method described in Hans J. Prochaska et al., Analytical Biochemistry 169, 328-336 (1988). Hepa1c1c7 cells were suspended in a Dulbecco-modified Eagle medium containing 10% of fetal bovine serum and 1% of penicillin-streptomycin at 4×10^5 cells/ml. To each well of a 96 well-microtiter plate, 0.2 ml of the cell suspension was added, and cultured at 37° C. overnight in the presence of 5% carbon dioxide gas. Then, the medium in the wells was replaced with a Dulbecco-modified Eagle medium. To each well, 0.4 μl of a solution of a test substance in water was added and then cultured for 24 hours. The agarobiose obtained in Preparation Example 1 and a commercially available agaro-oligosaccharide (trade name: Agaoligo) were used as test substances. For a negative control, water was added in place of a test substance. After completion of the culture, the medium was removed and the cells were washed with a phosphate buffer. Then, 0.1 ml of a cell-lysis solution (2 mM EDTA (pH 7.8), 1% NP-40) was added and incubated at 37° C. for 10 minutes to obtain an enzyme solution. To 25 it of the enzyme solution, 100 it of a reaction solution (25 mM Tris-HCl (pH 7.4), 0.67% BSA, 0.01% Tween 20, 5 μM FAD, 1 mM G6P, 30 μM NADP, 0.3 mg/ml MTT, 2 U/ml G6PDH (manufactured by Sigma)) was added. At this time, a substrate was added or not added. In the case where a substrate was added, menadion (manufactured by Sigma) was further added at a final concentration of 50 μM into the reaction solution. After incubation at room temperature for 30 minutes, 75 μl of 2N Na2CO3 was added to terminate the reaction, and an absorbanc at 590 nm was measured. This activity assay was performed in triplicate. The protein content was measured by using a 50-fold dilution of the enzyme solution with a phosphate buffer and MicroBCA protein assay kit. The QR activity was expressed as a QR activity relative to the control and calculated by the following formula.
QR activity={[(Absorbance in test substance-added section in the presence of substrate)−(Absorbance in test substance-added section in the absence of substrate)]/(Protein content in test substance-added section)}/{[(Absorbance in water-added section in the presence of substrate)−(Absorbance in water-added section in the absence of substrate)]/(Protein content in water-added section)}

[2] = tested on: Intracellular Glutathione (GSH); assay: Enhancing effect on intracellular glutathione (GSH) content in Hepa1c1c7 cells; type: cell-based; conditions: for GSH content (−fold): 24 hours, relative to water control
Procedure: […] was measured by a partially modified method from a method described in Clarissa Gerhauser et al., Cancer Research 57, 272-278 (1997). Hepa1c1c7 cells were suspended in a Dulbecco-modified Eagle medium containing 10% of fetal bovine serum and 1% of penicillin-streptomycin at 4×10^5 cells/ml. To each well of a 96 well-microtiter plate, 0.2 ml of the cell suspension was added, and cultured at 37° C. overnight in the presence of 5% carbon dioxide gas. Then, the medium in the wells was replaced with a Dulbecco-modified Eagle medium. To each well, 0.4 μl of a solution of a test substance in water was added and then cultured for 24 hours. The agarobiose obtained in Preparation Example 1 and a commercially available agaro-oligosaccharide (trade name: Agaoligo) were used as test substances. For a negative control, water was added in place of a test substance. After completion of the culture, the medium was removed and the cells were washed with a phosphate buffer. The solution was removed, and freeze-thaw of the cells was repeated three times. Thereto was added 0.1 ml of buffer A ([…] sodium phosphate buffer (pH 7.5), 6.3 mM EDTA) to obtain a cell lysate. To 25 it of the cell lysate, 100 al of a reaction solution (25 mM Tris-HCl (pH 7.4), 1 mM G6P, 30 μM NADP, 2 U/ml G6PDH, 0.25 U/ml glutathione reductase (manufactured by Sigma), 0.6 mM DTNB) was added. After incubation at room temperature for 5 minutes, an absorbance at 405 nm was measured. This activity assay was performed in triplicate. At the same time, as a standard, serial 2-fold dilutions of 2 to 200 al of […] were used in place of the cell lysate. The protein content was measured by using a 50-fold dilution of the cell lysate with a phosphate buffer and MicroBCA protein assay kit. The GSH content was expressed as a GSH content relative to the control and calculated by the following formula.
GSH content=[(GSH content in test substance-added section)/(Protein content in test substance-added section)]/[(GSH content in water-added section)/(Protein content in water-added section)]

[3] = 24 hours, final concentration 100 μM
[4] = 24 hours, final concentration 200 μM

OC[C@H]1O[C@@H](O[C@H]2[C@H]3OC[C@@H]2O[C@@H](O[C@H]2[C@@H](O)[C@@H](CO)O[C@@H](O[C@H]4[C@H]5OC[C@@H]4OC(O)[C@H]5O)[C@@H]2O)[C@H]3O)[C@H](O)[C@@H](O)[C@H]1O (some centres unmarked) [agarotetraose]
Fatal cases after oral administration (mouse): no fatal case

O=C1C=CC(CO)OC1O [DGE, L-glycero-1,5-epoxy-1αβ,6-dihydroxy-cis-hexa-3-en-2-one]
Fatal cases after oral administration (mouse): no fatal case
Cancer cell growth suppressing activity (HL-60 cell): had a cancer cell growth suppressing activity
Effect on GST activity (in words) [1]: significant increase
GST activity (−fold) ([1]; final concentration 5 μM): 1.4 fold
GST activity (−fold) ([1]; final concentration 10 μM): 1.4 fold
GST activity (−fold) ([1]; final concentration 20 μM): 1.6 fold

OC[C@H]1O[C@@H](O[C@H]2[C@H]3OC[C@@H]2O[C@@H](O[C@H]2[C@@H](O)[C@@H](CO)O[C@@H](O[C@H]4[C@H]5OC[C@@H]4O[C@@H](O[C@H]4[C@@H](O)[C@@H](CO)O[C@@H](O[C@H]6[C@H]7OC[C@@H]6OC(O)[C@H]7O)[C@@H]4O)[C@H]5O)[C@@H]2O)[C@H]3O)[C@H](O)[C@@H](O)[C@H]1O (mixture of isomers) [agarohexaose]
Fatal cases after oral administration (mouse): no fatal case

OC[C@H]1O[C@@H](O)[C@H](O)[C@@H](O[C@@H]2O[C@H]3CO[C@@H]([C@@H]2O)[C@@H]3O[C@@H]2O[C@H](CO)[C@H](O)[C@H](O[C@@H]3O[C@H]4CO[C@@H]([C@@H]3O)[C@@H]4O[C@@H]3O[C@H](CO)[C@H](O)[C@H](O[C@@H]4O[C@H]5CO[C@@H]([C@@H]4O)[C@@H]5O)[C@H]3O)[C@H]2O)[C@H]1O [Neoogarohexaose, neoagarohexaose, reference compound]
Effect on QR activity (in words) (Quinone Reductase (QR)): did not result in a significant increase
QR activity (−fold) (Quinone Reductase (QR); final concentration 100 μM): 1.0 fold
QR activity (−fold) (Quinone Reductase (QR); final concentration 200 μM): 1.1 fold
Effect on GST activity (in words) [1]: did not result in a significant increase
GST activity (−fold) [1, 3]: 1.1 fold
GST activity (−fold) [1, 4]: 1.1 fold

OC[C@H]1O[C@@H](O[C@H]2[C@H]3OC[C@@H]2OC(O)[C@H]3O)[C@H](O)[C@@H](O)[C@H]1O (mixture of isomers) [Agarobiose, agarobiose]
Fatal cases after oral administration (mouse): no fatal case
Effect on GSH content (in words) [2]: significant increase
GSH content (−fold) ([2]; final concentration 100 μM): 1.3 fold
GSH content (−fold) ([2]; final concentration 200 μM): 1.9 fold
Effect on QR activity (in words) (Quinone Reductase (QR)): significant increase
QR activity (fold vs water control) (Quinone Reductase (QR); final concentration 25 μM): 1.4
QR activity (fold vs water control) (Quinone Reductase (QR); final concentration 50 μM): 1.4
QR activity (fold vs water control) (Quinone Reductase (QR); final concentration 100 μM): 1.8
QR activity (fold vs water control) (Quinone Reductase (QR); final concentration 200 μM): 2.2
Effect on GST activity (in words) [1]: significant increase
GST activity (−fold) ([1]; 24 hours, final concentration 25 μM): 1.4 fold
GST activity (−fold) ([1]; 24 hours, final concentration 50 μM): 1.5 fold
GST activity (−fold) [1, 3]: 1.9 fold
GST activity (−fold) [1, 4]: 1.9 fold

agarooctaose
Fatal cases after oral administration (mouse): no fatal case
